Data published in patent publication EP0922101B1, “EGF-LIKE FACTOR FROM CHROMAFFIN GRANULES AND GLIA CELL-DERIVED NEUROTROPHIC FACTOR WITH SURVIVAL-PROMOTING ACTIVITY ON DAERGIC NEURONS” (BIOPHARM Gesellschaft zur biotechnologischen Entwicklung …, priority 1996, dated 1998).
“Also recorded” adds a separate entry of the source.

Experiments:
[1] = system: mesencephalic DAergic neurons; assay: Survival of TH-positive DAergic neurons in dissociated E14 ventral mesencephalic cell cultures (TH immunocytochemistry, cell counts); assay type: cell-based, rat; settings: for effect on survival promoting effect of chromaffin granule protein: 30 µM in combination with chromaffin granule protein 1:50, DIV1-DIV8; for basal survival of TH-immunoreactive neurons: 30 µM, control cultures, DIV8; for survival promoting activity: concentrations up to 100 ng/ml, treated for 7 days
Description: (§1) Tissue culture. Mesencephalic cell cultures were essentially established as described by Krieglstein and Unsicker (1994). In brief, the ventral midbrain floor was dissected from embryonic day (E) 14 Wistar rat fetuses of two litters (20-25 embryos) and collected in CMF. Tissue pieces were enzymatically dissociated using 0.25% trypsin (BioWhittaker) in CMF for 15 min at 37°C. After addition of an equal volume of ice-cold horse serum and 1mg DNAse, Cells were triturated with fire-polished and siliconized pasteur pipettes and subsequently washed with DMEM/F12. The single cell suspension (100µl) was seeded on polyornithine (0.1 mg/ml in 15mM borate buffer, pH 8.4, Sigma)-laminin (5µg/ml; Sigma) coated glass cover slips at a density of 200.000 cells/cm^2. Coverslips were incubated in a humified 5% CO2/95% air atmosphere to allow cells to attach. After two hours coverslips were transferred to 24-well plates (Falcon) containing 750 µl medium. On the following day, and subsequently every three days, 500 µl of the medium was replaced and neurotrophic factors were added at the same time at the given concentrations.
Immunocytochemistry. To identify DAergic or serotinergic neurons cells were visualized using antibodies aginst tyrosine hydroxylase (TH), or serotonin, respectively. Cells were fixed with 4% paraformaldehyde buffered in phosphate buffered saline (PBS) for 10 min at room temperature, permeabilized with acetone at -20°C for 10 min and washed with (PBS). After blocking with 1% H2O2 in PBS, followed by 1 % horse serum, coverslips were stained with a monoclonal antibody to rat TH (1:200; Boehringer Mannheim; diluted in 1 % horse serum) or with an antibody against serotonin (1:50; DAKO) for 1 h at 37°C. Specific staining was vizualized using the anti-mouse Vectastain ABC kit in combination with DAB (Camon, Germany). For glial fibrillary acidic protein (GFAP) immunocytochemistry, cells were fixed and permeabilized using aceton at -20°C for 20 min, then washed with PBS and incubated with a monoclonal antibody against GFAP (1:100; Sigma) for 1 h at 37°C. As a secondary antibody TRITC anti-mouse-IgG was used. To monitor cell proliferation bromodesoxyuridine (BrdU) was added to the culture, 24 hours prior fixation, at a final concentration of 10 µM. Cells were washed twice with PBS and fixed with 70% ethanol buffered with 50 mM glycine, pH 2.0, for 20 min at -20°C. Incorporated BrdU was identified using anti-BrdU detection Kit I (Boehringer, Mannheim). BrdU/TH double detection was achieved by first applying the protocol for BrdU followed after another five washes with PBS and by the procedure for TH staining using TRITC anti-mouse-IgG as a secondary antibody. Nuclei were stained with propidium iodide (20 s, 0.1µg/ml). Coverslips were mounted using Aquatex (Merck, Darmstadt).
Evaluation of cell numbers. Survival of DAergic neurons was evaluated by counting all TH-positive neurons in one diagonal strips of the coverslip using 100-fold magnification. This area corresponded to 12% of the total area. Quantification was done in triplicate and in at least two independent experiments. The number of GFAP-positive cells were assessed likewise.

[2] = system: GFAP-positive astroglial cells; assay: Induction of GFAP-positive astroglial cells in E14 mesencephalic cell cultures (GFAP immunocytochemistry); assay type: cell-based, rat
Description: as §1
Immunocytochemistry. To identify DAergic or serotinergic neurons cells were visualized using antibodies aginst tyrosine hydroxylase (TH), or serotonin, respectively. Cells were fixed with 4% paraformaldehyde buffered in phosphate buffered saline (PBS) for 10 min at room temperature, permeabilized with acetone at -20°C for 10 min and washed with (PBS). After blocking with 1% H2O2 in PBS, followed by 1 % horse serum, coverslips were stained with a monoclonal antibody to rat TH (1:200; Boehringer Mannheim; diluted in 1 % horse serum) or with an antibody against serotonin (1:50; DAKO) for 1 h at 37°C. Specific staining was vizualized using the anti-mouse Vectastain ABC kit in combination with DAB (Camon, Germany). For glial fibrillary acidic protein (GFAP) immunocytochemistry, cells were fixed and permeabilized using aceton at -20°C for 20 min, then washed with PBS and incubated with a monoclonal antibody against GFAP (1:100; Sigma) for 1 h at 37°C. As a secondary antibody TRITC anti-mouse-IgG was used. […]
Evaluation of cell numbers. Survival of DAergic neurons was evaluated by counting all TH-positive neurons in one diagonal strips of the coverslip using 100-fold magnification. […] Quantification was done in triplicate and in at least two independent experiments. The number of GFAP-positive cells were assessed likewise.
In an initial series of experiments the chromaffin granule-derived activity is analyzed by specifically blocking its putative receptor pathway. […] When cultures were treated with TGF-α, a physiological EGFR ligand in the CNS, or EGF (10 ng/ml), only few GFAP-positive astroglial cells could be detected (Fig. 12). […]

p185^c-erbB2 = p185^c-erbB2 (Homo sapiens, UniProt P04626); settings: cited from earlier work
Chain of p185^c-erbB2 (P04626 23-1255): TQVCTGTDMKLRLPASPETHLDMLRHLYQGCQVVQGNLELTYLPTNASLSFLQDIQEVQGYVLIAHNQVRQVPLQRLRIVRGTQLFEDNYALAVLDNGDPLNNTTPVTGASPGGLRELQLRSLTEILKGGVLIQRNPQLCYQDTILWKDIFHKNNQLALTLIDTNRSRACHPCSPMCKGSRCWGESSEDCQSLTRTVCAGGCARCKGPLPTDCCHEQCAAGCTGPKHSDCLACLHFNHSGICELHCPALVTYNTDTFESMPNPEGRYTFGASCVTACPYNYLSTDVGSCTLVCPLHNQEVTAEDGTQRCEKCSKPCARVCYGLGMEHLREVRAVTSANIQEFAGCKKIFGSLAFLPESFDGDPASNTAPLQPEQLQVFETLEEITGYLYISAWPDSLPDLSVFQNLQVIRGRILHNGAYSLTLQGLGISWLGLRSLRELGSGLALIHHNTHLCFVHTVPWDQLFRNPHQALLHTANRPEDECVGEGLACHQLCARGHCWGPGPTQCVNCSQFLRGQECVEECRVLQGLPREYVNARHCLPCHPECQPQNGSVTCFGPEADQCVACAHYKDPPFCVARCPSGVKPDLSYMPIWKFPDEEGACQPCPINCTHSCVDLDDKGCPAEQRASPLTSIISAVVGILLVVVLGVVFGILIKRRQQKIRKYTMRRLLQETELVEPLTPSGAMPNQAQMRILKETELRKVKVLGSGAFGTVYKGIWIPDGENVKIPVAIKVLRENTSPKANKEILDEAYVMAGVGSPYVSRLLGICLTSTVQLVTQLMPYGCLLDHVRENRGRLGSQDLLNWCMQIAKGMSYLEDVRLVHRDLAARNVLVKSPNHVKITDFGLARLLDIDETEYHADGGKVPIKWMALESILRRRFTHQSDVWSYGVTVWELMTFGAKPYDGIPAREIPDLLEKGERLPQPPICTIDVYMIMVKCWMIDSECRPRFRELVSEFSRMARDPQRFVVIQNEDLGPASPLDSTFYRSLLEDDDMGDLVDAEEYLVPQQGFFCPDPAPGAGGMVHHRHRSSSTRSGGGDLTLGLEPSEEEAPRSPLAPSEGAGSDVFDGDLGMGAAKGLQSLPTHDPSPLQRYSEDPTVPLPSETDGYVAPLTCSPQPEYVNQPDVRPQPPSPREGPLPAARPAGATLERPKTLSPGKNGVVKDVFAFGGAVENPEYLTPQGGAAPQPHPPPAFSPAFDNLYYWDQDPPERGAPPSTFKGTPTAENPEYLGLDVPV

EGFR kinase = EGFR kinase (Homo sapiens, UniProt P00533); settings: EGFR kinase autophosphorylation; cited from earlier work
Chain of EGFR kinase (P00533 25-1210): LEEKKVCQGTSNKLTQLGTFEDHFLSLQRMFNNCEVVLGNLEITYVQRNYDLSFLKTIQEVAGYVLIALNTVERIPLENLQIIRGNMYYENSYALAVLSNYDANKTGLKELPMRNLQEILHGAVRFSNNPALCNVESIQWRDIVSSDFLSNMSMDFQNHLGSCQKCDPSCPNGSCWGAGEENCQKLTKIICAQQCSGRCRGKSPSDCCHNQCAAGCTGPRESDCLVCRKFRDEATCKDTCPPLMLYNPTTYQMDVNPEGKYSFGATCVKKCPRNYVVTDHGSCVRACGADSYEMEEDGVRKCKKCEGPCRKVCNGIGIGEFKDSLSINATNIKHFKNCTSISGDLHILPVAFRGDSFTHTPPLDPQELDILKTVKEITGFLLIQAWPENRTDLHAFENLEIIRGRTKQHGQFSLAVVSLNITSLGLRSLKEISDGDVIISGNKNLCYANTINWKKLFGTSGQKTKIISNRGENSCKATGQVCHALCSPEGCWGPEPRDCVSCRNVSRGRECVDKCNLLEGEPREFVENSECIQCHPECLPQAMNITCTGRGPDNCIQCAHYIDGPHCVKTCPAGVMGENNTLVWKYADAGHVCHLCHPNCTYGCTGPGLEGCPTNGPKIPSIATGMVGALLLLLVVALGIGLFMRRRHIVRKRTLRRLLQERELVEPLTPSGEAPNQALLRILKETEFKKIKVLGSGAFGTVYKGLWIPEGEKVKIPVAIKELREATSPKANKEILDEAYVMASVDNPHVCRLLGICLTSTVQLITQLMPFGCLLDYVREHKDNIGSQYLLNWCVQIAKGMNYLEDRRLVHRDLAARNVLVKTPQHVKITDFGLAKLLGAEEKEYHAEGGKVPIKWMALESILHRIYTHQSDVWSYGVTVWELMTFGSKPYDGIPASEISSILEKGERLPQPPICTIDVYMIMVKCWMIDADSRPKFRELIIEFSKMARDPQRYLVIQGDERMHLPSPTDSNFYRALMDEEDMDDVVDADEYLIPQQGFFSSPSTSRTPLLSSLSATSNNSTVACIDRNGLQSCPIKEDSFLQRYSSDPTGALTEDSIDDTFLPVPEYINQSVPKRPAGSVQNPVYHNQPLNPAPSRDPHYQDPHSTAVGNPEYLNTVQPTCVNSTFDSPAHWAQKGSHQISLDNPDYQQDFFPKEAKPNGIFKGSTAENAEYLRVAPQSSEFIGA

HER1-2-kinase = HER1-2-kinase autophosphorylation; cited from earlier work
[3] = 10µM with chromaffin granule protein 1:50, six days

Molecule: NC(CCCC(=O)O)C(=O)O (stereo not drawn) [AA, α-aminoadipic acid]
- effect on survival promoting effect of chromaffin granule protein [1]: abolished the survival promoting affect of chromaffin granule protein
- basal survival of TH-immunoreactive neurons [1]: without affecting basal survival

Molecule: O=C1NC(=O)c2cc(Nc3ccccc3)c(Nc3ccccc3)cc21 [DAPH, 4,5-Dianilinophthalimide]
- effect on survival of DAergic neurons induced by chromaffin granule activity [1, 3]: inhibited
- effect on FGF-2-mediated induction of astroglial cells ([2]; 10 µM with FGF-2 at 10 ng/ml, DIV 6): could not be affected by this inhibitor
- effect on appearence of astroglial cell induced by the chromaffin granule activity [2, 3]: inhibited
- effect on appearance of GFAP-positive astroglial cells in TGF-α or EGF treated cultures ([2]; 10 µM, DIV 6): effectively blocked
- p185^c-erbB2 autophosphorylation (p185^c-erbB2): inhibits

Molecule: O=c1[nH]c(=O)n([C@H]2C[C@H](O)[C@@H](CO)O2)cc1F [FDUR, 5-fluorodeoxyuridine]
- effect on survival promoting effect of chromaffin granule protein [1]: abolished the survival promoting affect of chromaffin granule protein
- basal survival of TH-immunoreactive neurons [1]: without affecting basal survival

Molecule: N#C/C(=C\c1ccc(O)c(O)c1)C(=O)NCCCCc1ccccc1 [Tyrphostin B56]
- effect on chromaffin granule protein-induced appearence of astroglial cells ([2]; 10µM Tyrphostin B56 with chromaffin granule protein 1:50): successfully inhibited; also recorded: fully blocked the effect of granule protein on mesencephalic glia
- IC50 (EGFR kinase): 5 µM
- IC50 (HER1-2-kinase): > 500 µM

Molecule: C[N+](C)(C)CCOC(N)=O [carbachol]
- survival of TH-positive neurons ([1]; culture medium containing carbachol (10^-5 M), DIV 8): uneffective

Molecule: Leu-enkephalin
- survival promoting activity [1]: none of these neuropeptides had any survival promoting activity

Molecule: Met-enkephalin
- survival promoting activity [1]: none of these neuropeptides had any survival promoting activity

Molecule: neuropeptide Y
- survival promoting activity [1]: none of these neuropeptides had any survival promoting activity
